The structures appear in SMILES notation.

The subject of assay [1] is CaNT tumours. Kind of assay: Induction of necrosis in tumours, scored on haematoxylin and eosin stained sections. It counts as in vivo, mice. Particulars: Carcinoma NT tumour, 24 h post dose, mean score from at least three tumours, control tumours 2.0. On the procedure: Mice bearing either CaNT or SaS tumours were treated with the test compound and tumours excised after 24 h, fixed in formalin, embedded in paraffin, sectioned and stained with haematoxylin and eosin. Sections were scored based on area of necrosis as follows:
Control tumours had mean scores of 2.0 (CaNT) and 1.0 (SaS). Mean values from at least three different tumours were obtained for each test compound.

Assay [2] has as its system CaNT tumour vasculature. Kind of assay: Activity against tumour vasculature measured by fluorescent dye (Hoechst 33342): tumour functional vascular volume. It counts as in vivo, mice. Particulars: Carcinoma NT tumour, 24 h post dose. As for the experimental part: Activity Against Tumour Vasculature Measured by Fluorescent Dye.
Tumour functional vascular volume in CaNT tumour-bearing mice was measured using the fluorescent dye Hoechst 33342 according to the method of Smith et al (Brit J Cancer 57, 247-253, 1988). The fluorescent dye was dissolved in saline at 6.25 mg/ml and injected intravenously at 10 mg/kg 24 hours after drug treatment. One minute later, animals were killed and tumours excised and frozen; 10 μm sections were cut at 3 different levels and observed under UV illumination using an Olympus microscope equipped with epifluorescence. Blood vessels were identified by their fluorescent outlines and vascular volume was quantified using a point scoring system based on that described by Chalkley, (J Natl Cancer Inst, 4, 47-53, 1943). All estimates were based on counting a minimum of 100 fields from sections cut at the 3 different levels.

With `COC(=O)C(CCCN=C(N)N[N+](=O)[O-])NC(=O)Oc1cc(/C=C\c2cc(OC)c(OC)c(OC)c2)ccc1OC` (centres unmarked) [Cmpd. of Example 2, (Z)-N-[2-methoxy-5-[2-(3,4,5-trimethoxyphenyl)ethenyl]phenoxycarbonyl]N^G-nitroarginine Methyl Ester], the Necrosis score in assay [1] (50 mg/kg i.p.) is 8.0. Also, in assay [2] (50 mg/kg i.p.), the “Vascular volume % reduction” value came out at 95%.

Regarding `COc1ccc(/C=C\c2cc(OC)c(OC)c(OC)c2)cc1OP(=O)(O)O` [CA4P, Combretastatin A4 phosphate], the Necrosis score in assay [1] (50 mg/kg i.p.) was 6.0; in assay [1] (50 mg/kg i.v.) it was 5.7. Also, the “Vascular volume % reduction” value is 91% in assay [2] (50 mg/kg i.p.) and 88% in assay [2] (50 mg/kg i.v.).

Take `COc1ccc(/C=C\c2cc(OC)c(OC)c(OC)c2)cc1OC(=O)C(N)CCCN=C(N)N[N+](=O)[O-]` (centres unmarked) [Cmpd. of Example 1, (Z)-1-(4-Methoxy-3-N^G-nitroarginyloxyphenyl)-2-(3,4,5-trimethoxyphenyl)ethene]: in assay [1] (50 mg/kg i.v.), the Necrosis score came out at 10.0. Also, in assay [2] (50 mg/kg i.v.), the “Vascular volume % reduction” value stood at 98%.
